target: T1, active p38 alpha enzyme (Upstate Biotechnology) (Homo sapiens, UniProt Q16539); test: p38α biochemical assay (ATP turnover, luminescent detection, Cambrex PKlight); details: p38α biochemical assay, Table 1 Biological Activity
T1 construct: purchased Upstate Biotechnology
How it was run: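 Luminescent ATP-depletion readout measures total ATP turnover by p38α phosphorylating whole MapkapK2 protein. ATP 1.4 uM final; 30C, 2 h. Compounds delivered from DMSO.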

T1 sequence (Q16539 whole entry): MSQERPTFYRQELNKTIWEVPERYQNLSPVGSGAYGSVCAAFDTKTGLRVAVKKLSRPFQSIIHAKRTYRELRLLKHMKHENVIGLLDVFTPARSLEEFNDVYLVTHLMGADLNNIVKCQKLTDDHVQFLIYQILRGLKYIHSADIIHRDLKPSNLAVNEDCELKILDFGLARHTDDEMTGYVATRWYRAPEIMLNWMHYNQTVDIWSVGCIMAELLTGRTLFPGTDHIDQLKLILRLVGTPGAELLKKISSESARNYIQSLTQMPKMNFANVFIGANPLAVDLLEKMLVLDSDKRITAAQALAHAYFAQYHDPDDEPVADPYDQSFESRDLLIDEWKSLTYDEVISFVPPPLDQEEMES

IC50 [nM]	Compound
> 1000	Cc1cccc(CCC(=O)NCc2onc(-c3ccc(F)cc3)c2-c2nc(C(=O)NC(C)C)cs2)c1 [Example 648]
> 1000	CCC(C(=O)NCc1onc(-c2ccc(F)cc2)c1-c1nc(C(=O)NC(C)C)cs1)c1ccccc1 (stereo not shown) [Example 649]
> 1000	Cc1cc(C)c(C(=O)NCc2onc(-c3ccc(F)cc3)c2-c2nc(C(=O)NC(C)C)cs2)c(C)c1 [Example 650]
> 1000	CCCc1ccc(C(=O)NCc2onc(-c3ccc(F)cc3)c2-c2nc(C(=O)NC(C)C)cs2)cc1 [Example 651]
> 1000	CC(C)NC(=O)c1csc(-c2c(-c3ccc(F)cc3)noc2CNC(=O)c2ccc3c(c2)OCO3)n1 [Example 652]
≤ 1000	CC(C)NC(=O)c1csc(-c2c(-c3ccc(F)cc3)noc2CNC(=O)/C=C/c2ccccc2F)n1 [Example 653]
> 1000	CCOc1ccccc1C(=O)NCc1onc(-c2ccc(F)cc2)c1-c1nc(C(=O)NC(C)C)cs1 [Example 654]
> 1000	Cc1ccccc1OCC(=O)NCc1onc(-c2ccc(F)cc2)c1-c1nc(C(=O)NC(C)C)cs1 [Example 655]
> 1000	CC(C)NC(=O)c1csc(-c2c(-c3ccc(F)cc3)noc2CNC(=O)CCc2ccccc2O)n1 [Example 656]
> 1000	COc1ccccc1CC(=O)NCc1onc(-c2ccc(F)cc2)c1-c1nc(C(=O)NC(C)C)cs1 [Example 657]
> 1000	CC(C)NC(=O)c1csc(-c2c(-c3ccc(F)cc3)noc2CNC(=O)C(C)c2ccc(O)cc2)n1 (stereo not shown) [Example 658]
> 1000	CC(C)NC(=O)c1csc(-c2c(-c3ccc(F)cc3)noc2CNC(=O)c2ccccc2[N+](=O)[O-])n1 [Example 659]
> 1000	CC(C)NC(=O)c1csc(-c2c(-c3ccc(F)cc3)noc2CNC(=O)c2cccc([N+](=O)[O-])c2)n1 [Example 660]
> 1000	COc1cccc(O)c1C(=O)NCc1onc(-c2ccc(F)cc2)c1-c1nc(C(=O)NC(C)C)cs1 [Example 661]
> 1000	COc1ccc(O)c(C(=O)NCc2onc(-c3ccc(F)cc3)c2-c2nc(C(=O)NC(C)C)cs2)c1 [Example 662]
> 1000	COc1ccc(C(=O)NCc2onc(-c3ccc(F)cc3)c2-c2nc(C(=O)NC(C)C)cs2)c(O)c1 [Example 663]
> 1000	COc1ccc(C(=O)NCc2onc(-c3ccc(F)cc3)c2-c2nc(C(=O)NC(C)C)cs2)cc1O [Example 664]
> 1000	CC(C)NC(=O)c1csc(-c2c(-c3ccc(F)cc3)noc2CNC(=O)c2cc(O)c(O)c(O)c2)n1 [Example 665]
> 1000	CC(C)NC(=O)c1csc(-c2c(-c3ccc(F)cc3)noc2CNC(=O)Cc2ccc(O)c(F)c2)n1 [Example 666]
> 1000	Cc1cc(C(=O)NCc2onc(-c3ccc(F)cc3)c2-c2nc(C(=O)NC(C)C)cs2)cc(Cl)n1 [Example 667]
> 1000	CC(C)NC(=O)c1csc(-c2c(-c3ccc(F)cc3)noc2CNC(=O)Cc2c(F)cccc2F)n1 [Example 668]
≤ 1000	CC(C)NC(=O)c1csc(-c2c(-c3ccc(F)cc3)noc2CNC(=O)c2cccc3ccccc23)n1 [Example 669]
> 1000	CC(C)NC(=O)c1csc(-c2c(-c3ccc(F)cc3)noc2CNC(=O)c2ccc(Cl)cc2O)n1 [Example 670]
> 1000	CC(C)NC(=O)c1csc(-c2c(-c3ccc(F)cc3)noc2CNC(=O)c2cc(Cl)ccc2O)n1 [Example 671]
> 1000	CC(C)NC(=O)c1csc(-c2c(-c3ccc(F)cc3)noc2CNC(=O)c2ccc3ncccc3c2)n1 [Example 672]
> 1000	CC(C)NC(=O)c1csc(-c2c(-c3ccc(F)cc3)noc2CNC(=O)c2cnc(O)c(Cl)c2)n1 [Example 673]

IC50 [nM]	Compound
> 1000	CC(C)NC(=O)c1csc(-c2c(-c3ccc(F)cc3)noc2CNC(=O)c2ccc(F)cc2Cl)n1 [Example 674]
> 1000	CC(C)NC(=O)c1csc(-c2c(-c3ccc(F)cc3)noc2CNC(=O)c2c(F)cccc2Cl)n1 [Example 675]
> 1000	CC(C)NC(=O)c1csc(-c2c(-c3ccc(F)cc3)noc2CNC(=O)CNC(=O)OC(C)(C)C)n1 [Example 676]
> 1000	Cc1c(C(=O)NCc2onc(-c3ccc(F)cc3)c2-c2nc(C(=O)NC(C)C)cs2)oc2ccccc12 [Example 677]
> 1000	CC(C)NC(=O)c1csc(-c2c(-c3ccc(F)cc3)noc2CNC(=O)CC2Cc3ccccc3C2)n1 [Example 678]
> 1000	CC(C)NC(=O)c1csc(-c2c(-c3ccc(F)cc3)noc2CNC(=O)C2CCc3ccccc3C2)n1 (stereo not shown) [Example 679]
> 1000	COc1ccccc1/C=C/C(=O)NCc1onc(-c2ccc(F)cc2)c1-c1nc(C(=O)NC(C)C)cs1 [Example 680]
> 1000	CC(C)NC(=O)c1csc(-c2c(-c3ccc(F)cc3)noc2CNC(=O)c2csc3ccccc23)n1 [Example 681]
> 1000	CC(C)NC(=O)c1csc(-c2c(-c3ccc(F)cc3)noc2CNC(=O)c2cc3ccccc3s2)n1 [Example 682]
> 1000	CCCCc1ccc(C(=O)NCc2onc(-c3ccc(F)cc3)c2-c2nc(C(=O)NC(C)C)cs2)cc1 [Example 683]
> 1000	CC(C)NC(=O)c1csc(-c2c(-c3ccc(F)cc3)noc2CNC(=O)c2ccc(C(C)(C)C)cc2)n1 [Example 684]
> 1000	CC(C)NC(=O)c1csc(-c2c(-c3ccc(F)cc3)noc2CNC(=O)c2ccc(N(C)C=O)cc2)n1 [Example 685]
> 1000	CC(=O)Nc1cccc(C(=O)NCc2onc(-c3ccc(F)cc3)c2-c2nc(C(=O)NC(C)C)cs2)c1 [Example 686]
> 1000	CC(C)NC(=O)c1csc(-c2c(-c3ccc(F)cc3)noc2CNC(=O)COc2ccccc2C=O)n1 [Example 687]
> 1000	CC(=O)Oc1ccc(C(=O)NCc2onc(-c3ccc(F)cc3)c2-c2nc(C(=O)NC(C)C)cs2)cc1 [Example 688]
> 1000	COC(=O)c1ccc(C(=O)NCc2onc(-c3ccc(F)cc3)c2-c2nc(C(=O)NC(C)C)cs2)cc1 [Example 689]
> 1000	CC(=O)Oc1cccc(C(=O)NCc2onc(-c3ccc(F)cc3)c2-c2nc(C(=O)NC(C)C)cs2)c1 [Example 690]
≤ 1000	CC(=O)Oc1ccccc1C(=O)NCc1onc(-c2ccc(F)cc2)c1-c1nc(C(=O)NC(C)C)cs1 [Example 691]
> 1000	CC(C)NC(=O)c1csc(-c2c(-c3ccc(F)cc3)noc2CNC(=O)Cc2ccc3c(c2)OCO3)n1 [Example 692]
> 1000	CCCOc1ccc(C(=O)NCc2onc(-c3ccc(F)cc3)c2-c2nc(C(=O)NC(C)C)cs2)cc1 [Example 693]
> 1000	CC(C)NC(=O)c1csc(-c2c(-c3ccc(F)cc3)noc2CNC(=O)c2ccc(OC(C)C)cc2)n1 [Example 694]
> 1000	Cc1cccc([N+](=O)[O-])c1C(=O)NCc1onc(-c2ccc(F)cc2)c1-c1nc(C(=O)NC(C)C)cs1 [Example 695]
> 1000	Cc1cccc(C(=O)NCc2onc(-c3ccc(F)cc3)c2-c2nc(C(=O)NC(C)C)cs2)c1[N+](=O)[O-] [Example 696]
≤ 1000	Cc1ccc([N+](=O)[O-])c(C(=O)NCc2onc(-c3ccc(F)cc3)c2-c2nc(C(=O)NC(C)C)cs2)c1 [Example 697]
> 1000	Cc1c(C(=O)NCc2onc(-c3ccc(F)cc3)c2-c2nc(C(=O)NC(C)C)cs2)cccc1[N+](=O)[O-] [Example 698]
> 1000	COc1ccc(OC)c(C(=O)NCc2onc(-c3ccc(F)cc3)c2-c2nc(C(=O)NC(C)C)cs2)c1 [Example 699]
